In ChEMBL document CHEMBL2346520, “Design, synthesis and biological evaluation of novel imidazo[4,5-c]pyridinecarboxamide derivatives as PARP-1 inhibitors” (Bioorg Med Chem Lett, 2013) one finds IC50 and inhibition data, which are given here for 7 molecules.

SMILES strings stand for the structures.

The target in the first assay is T1, Poly [ADP-ribose] polymerase 1 (Homo sapiens, UniProt P09874). The assay can be described thus: Inhibition of PARP1 (unknown origin).
T1 sequence (P09874 whole entry): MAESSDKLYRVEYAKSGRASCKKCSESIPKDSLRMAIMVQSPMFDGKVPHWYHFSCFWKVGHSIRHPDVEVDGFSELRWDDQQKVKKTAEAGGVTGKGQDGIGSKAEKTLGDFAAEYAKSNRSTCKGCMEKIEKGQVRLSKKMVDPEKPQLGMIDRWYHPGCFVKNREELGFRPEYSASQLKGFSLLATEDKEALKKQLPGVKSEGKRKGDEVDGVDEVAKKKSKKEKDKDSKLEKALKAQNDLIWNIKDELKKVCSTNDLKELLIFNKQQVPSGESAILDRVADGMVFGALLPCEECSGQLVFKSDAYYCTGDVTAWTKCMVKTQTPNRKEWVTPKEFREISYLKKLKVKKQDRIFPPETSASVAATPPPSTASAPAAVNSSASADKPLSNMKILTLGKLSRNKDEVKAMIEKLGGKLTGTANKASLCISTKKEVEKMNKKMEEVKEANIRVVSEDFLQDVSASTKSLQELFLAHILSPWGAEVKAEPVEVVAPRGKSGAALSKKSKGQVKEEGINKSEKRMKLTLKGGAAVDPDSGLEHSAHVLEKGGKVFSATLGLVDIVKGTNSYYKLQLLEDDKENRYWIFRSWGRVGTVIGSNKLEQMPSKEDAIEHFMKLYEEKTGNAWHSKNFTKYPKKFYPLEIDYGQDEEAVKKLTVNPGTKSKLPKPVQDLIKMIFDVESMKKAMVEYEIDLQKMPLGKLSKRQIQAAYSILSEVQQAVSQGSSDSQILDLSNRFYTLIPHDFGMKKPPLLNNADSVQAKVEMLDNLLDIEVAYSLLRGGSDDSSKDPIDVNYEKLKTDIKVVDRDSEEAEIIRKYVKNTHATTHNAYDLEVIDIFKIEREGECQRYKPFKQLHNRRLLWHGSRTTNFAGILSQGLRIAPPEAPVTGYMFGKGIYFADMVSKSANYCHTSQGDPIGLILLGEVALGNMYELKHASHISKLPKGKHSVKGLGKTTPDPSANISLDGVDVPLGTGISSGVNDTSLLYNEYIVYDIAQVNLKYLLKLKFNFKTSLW
Details: not given
In the case of `CC(C)N1CCCC(c2nc3c(C(N)=O)cncc3[nH]2)C1` (configuration not stated), 651 nM corresponded to half-maximal inhibition (IC50).
`CCCN1CCC(c2nc3c(C(N)=O)cncc3[nH]2)CC1` had an IC50 of 528 nM.
Same read-out and setting: then `CN1CCC(c2nc3c(C(N)=O)cncc3[nH]2)CC1`, with 1450 nM; and `CCCN1CCCC(c2nc3c(C(N)=O)cncc3[nH]2)C1` (configuration not stated), with 938 nM.
Same read-out and setting: then `NC(=O)c1cncc2[nH]c(C3CCNCC3)nc12`, with 825 nM; and `NC(=O)c1cncc2[nH]c(C3CCCNC3)nc12` (configuration not stated), with 636 nM.

The next assay concerns the target T1, Poly [ADP-ribose] polymerase 1. The settings on record: 100 uM.
Description: Inhibition of PARP1 (unknown origin) at 100 uM
`NC(=O)c1cccc(N)c1` came in with an inhibition of 100%.
